Data from patent US7183295B2, “PPAR-activating compound and pharmaceutical composition comprising the compound” (Kowa Co., Ltd., priority 2003, dated 2007).
Read-outs that look alike come from different tables or passages of the source.

Legend:
Format in all cases: cell-based
[1] = biological target: T1, human PPARδ (137–441aa) ligand binding domain (Homo sapiens, UniProt Q03181); experiment: PPAR transfection (Gal4-LBD luciferase reporter) assay, hPPARδ; settings: read-out: hPPAR, EC50 δ (agonist activity)
T1 construct: δ (137–441aa); expressed in transfected cells; host or cells: COS-7
T1 sequence (Q03181 137-441): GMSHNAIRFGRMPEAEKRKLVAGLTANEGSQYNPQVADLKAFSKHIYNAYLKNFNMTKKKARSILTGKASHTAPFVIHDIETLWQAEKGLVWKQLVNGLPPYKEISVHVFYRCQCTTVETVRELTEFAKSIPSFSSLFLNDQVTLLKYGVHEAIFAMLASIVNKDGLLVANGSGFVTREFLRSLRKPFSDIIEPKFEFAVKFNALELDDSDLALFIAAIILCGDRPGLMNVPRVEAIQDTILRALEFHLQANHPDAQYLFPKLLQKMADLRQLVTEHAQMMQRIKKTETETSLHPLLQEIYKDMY
Protocol: (§1) COS-7 cells, which is African green monkey kidney cell line, were used for all transfection assays. Cells were cultured in DMEM medium supplemented with 10% fetal bovine serum, glutamic acid, and an antibiotic under humidified 5% CO2 atmosphere.
(§2) Cells were transfected by lipofectamine reagent with a mixture containing expression plasmid, firefly luciferase reporter plasmid. And a β-galactosidase expression plasmid used as an internal control for transfection efficiency.
(§3) Transiently transfected cells were incubated with DMEM with 0.2% FCS with or without compound. And after 16 hours, luciferase activity and β-galactosidase activity of cell lysate were measured.
(§4) Each compound was dissolved in and diluted with dimethyl sulfoxide (DMSO), and the DMSO concentration of the DMEM medium (containing 0.2% serum) was adjusted to 0.1% upon treatment of cells.

[2] = biological target: T2, human PPARα (166–467aa) ligand binding domain (Homo sapiens, UniProt Q07869); experiment: PPAR transfection (Gal4-LBD luciferase reporter) assay, hPPARα; settings: read-out: hPPAR, EC50 α (agonist activity)
T2 construct: human PPARα (166–467aa); expressed in transfected cells; host or cells: COS-7
T2 sequence (Q07869 166-467): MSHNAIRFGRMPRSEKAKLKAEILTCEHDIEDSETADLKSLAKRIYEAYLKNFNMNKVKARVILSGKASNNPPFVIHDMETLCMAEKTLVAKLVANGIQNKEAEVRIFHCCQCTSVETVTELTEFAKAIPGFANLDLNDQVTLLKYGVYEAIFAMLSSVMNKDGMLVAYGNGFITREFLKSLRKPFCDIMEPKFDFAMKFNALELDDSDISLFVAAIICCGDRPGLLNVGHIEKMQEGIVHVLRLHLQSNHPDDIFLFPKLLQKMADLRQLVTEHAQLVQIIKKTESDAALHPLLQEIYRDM
Protocol: as §1, §2, §3, §4

[3] = biological target: T3, human PPARγ (182–505aa) ligand binding domain (Homo sapiens, UniProt P37231); experiment: PPAR transfection (Gal4-LBD luciferase reporter) assay, hPPARγ; settings: read-out: hPPAR, EC50 γ (agonist activity)
T3 construct: γ(182–505aa); expressed in transfected cells; host or cells: COS-7
T3 sequence (P37231 182-505): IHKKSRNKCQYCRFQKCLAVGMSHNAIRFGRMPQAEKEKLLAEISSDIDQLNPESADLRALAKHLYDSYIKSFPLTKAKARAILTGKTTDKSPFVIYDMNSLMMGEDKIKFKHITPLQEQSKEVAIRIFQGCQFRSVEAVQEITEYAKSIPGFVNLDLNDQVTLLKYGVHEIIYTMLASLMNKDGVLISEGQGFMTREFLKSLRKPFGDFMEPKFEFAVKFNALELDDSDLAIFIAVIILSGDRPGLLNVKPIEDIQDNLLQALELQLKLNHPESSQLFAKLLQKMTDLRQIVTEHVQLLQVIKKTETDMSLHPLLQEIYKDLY
Protocol: as §1, §2, §3, §4

[4] = transfected COS-7 cells, 16 hours, luciferase activity

Row | Structure (SMILES) | EC50 [1, 4] | EC50 [2, 4] | EC50 [3, 4] | EC50 [1] | EC50 [2] | EC50 [3]
1 | CC(Oc1cccc(CCN(CCOc2ccccc2)c2nc3cc(F)ccc3o2)c1)C(=O)O (stereo not drawn) [Example 43, 2-[3-[2-[N-(5-Fluorobenzoxazol-2-yl)-N-2-phenoxyethyl]aminoethyl]phenoxy]propionic acid] | 5300 nM | 70 nM | > 100000 nM |  |  | 
2 | COc1ccc2oc(N(CCOc3ccccc3)CCc3cccc(OC(C)C(=O)O)c3)nc2c1 (stereo not drawn) [Example 44, 2-[3-[2-[N-(5-Methoxybenzoxazol-2-yl)-N-2-phenoxyethyl]aminoethyl]phenoxy]propionic acid] | 1600 nM | 80 nM | > 100000 nM |  |  | 
3 | CCC(Oc1cccc(CCN(CCOc2ccc(OC)cc2)c2nc3ccccc3o2)c1)C(=O)O (stereo not drawn) [Example 45, 2-[3-[2-[N-(Benzoxazol-2-yl)-N-2-(4-methoxyphenoxy)ethyl]aminoethyl]phenoxy]butyric acid] | 1800 nM | 10 nM | 6300 nM |  |  | 
4 | CCC(Oc1cccc(CCN(CCOc2ccc(OC)cc2)c2nc3cc(F)ccc3o2)c1)C(=O)O (stereo not drawn) [Example 46, 2-[3-[2-[N-(5-Fluorobenzoxazol-2-yl)-N-2-(4-methoxyphenoxy)ethyl]aminoethyl]phenoxy]butyric acid] | 1800 nM | 10 nM | > 100000 nM |  |  | 
5 | CCC(Oc1cccc(CCN(CCOc2ccc(OC)cc2)c2nc3cc(Cl)ccc3o2)c1)C(=O)O (stereo not drawn) [Example 47, 2-[3-[2-[N-(5-Chlorobenzoxazol-2-yl)-N-2-(4-methoxyphenoxy)ethyl]aminoethyl]phenoxy]butyric acid] | 1500 nM | 40 nM | > 50000 nM |  |  | 
6 | CCC(Oc1cccc(CCN(CCOc2ccc(OC)cc2)c2nc3cc(OC)ccc3o2)c1)C(=O)O (stereo not drawn) [Example 48, 2-[3-[2-[N-(5-Methoxybenzoxazol-2-yl)-N-2-(4-methoxyphenoxy)ethyl]aminoethyl]phenoxy]butyric acid] | 2000 nM | 80 nM | 5200 nM |  |  | 
7 | CCC(Oc1cccc(CCN(CCCOc2ccc(OC)cc2)c2nc3cc(F)ccc3o2)c1)C(=O)O (stereo not drawn) [Example 49, 2-[3-[2-[N-(5-Fluorobenzoxazol-2-yl)-N-3-(4-methoxyphenoxy)propyl]aminoethyl]phenoxy]butyric acid] | 1500 nM | 20 nM | 1500 nM |  |  | 
8 | CCC(Oc1cccc(CCN(CCCOc2ccc(F)cc2)c2nc3cc(OC)ccc3o2)c1)C(=O)O (stereo not drawn) [Example 51, 2-[3-[2-[N-3-(4-Fluorophenoxy)propyl-N-(5-methoxybenzoxazol-2-yl)]aminoethyl]phenoxy]butyric acid] | 1400 nM | 30 nM | 3800 nM |  |  | 
9 | CCC(Oc1cccc(CCN(CCCOc2ccc(Cl)cc2)c2nc3cc(OC)ccc3o2)c1)C(=O)O (stereo not drawn) [Example 52, 2-[3-[2-[N-3-(4-Chlorophenoxy)propyl-N-(5-methoxybenzoxazol-2-yl)]aminoethyl]phenoxy]butyric acid] | 400 nM | 10 nM | 2000 nM |  |  | 
10 | COc1ccc(OCCCN(Cc2cccc(OC(C)C(=O)O)c2)c2nc3ccccc3s2)cc1 (stereo not drawn) [Example 96] | 1200 nM | 1 nM | 1100 nM |  |  | 
11 | Cc1ccc2oc(N(CCCOc3ccc(F)cc3)Cc3cccc(OC(C)C(=O)O)c3)nc2c1 (stereo not drawn) [Example 153] | 1400 nM | 3 nM | 2500 nM |  |  | 
12 | CC(Oc1cccc(CN(CCCOc2ccc3c(c2)OCO3)c2nc3ccccc3o2)c1)C(=O)O (stereo not drawn) [Example 157] | 1300 nM | 4 nM | 1200 nM |  |  | 
13 | CC(Oc1cccc(CN(CCCOc2ccccc2)c2nc3cc4c(cc3o2)OCO4)c1)C(=O)O (stereo not drawn) [Example 159] | 1500 nM | 9 nM | > 10000 nM |  |  | 

Further lines, results first:

Row | EC50 [1, 4] | EC50 [2, 4] | EC50 [3, 4] | EC50 [1] | EC50 [2] | EC50 [3] | Structure (SMILES)
14 | 1600 nM | 80 nM | 9100 nM |  |  |  | CCC(Oc1cccc(CCN(CCCOc2ccccc2)c2nc3cc(F)ccc3o2)c1)C(=O)O (stereo not drawn) [Example 39, 2-[3-[2-[N-(5-Fluorobenzoxazol-2-yl)-N-3-phenoxypropyl]aminoethyl]phenoxy]butyric acid]
15 | > 50000 nM | 40 nM | 2000 nM |  |  |  | CCC(Oc1cccc(CCN(CCOc2ccccc2)c2nc3ccccc3o2)c1)C(=O)O (stereo not drawn) [Example 41, 2-[3-[2-[N-(Benzoxazol-2-yl)-N-2-phenoxyethyl]aminoethyl]phenoxy]butyric acid]
16 | 1400 nM | 40 nM | 2600 nM |  |  |  | CCC(Oc1cccc(CCN(CCCOc2ccc(F)cc2)c2nc3ccccc3o2)c1)C(=O)O (stereo not drawn) [Example 50, 2-[3-[2-[N-(Benzoxazol-2-yl)-N-3-(4-fluorophenoxy)propyl]aminoethyl]phenoxy]butyric acid]
17 | 1900 nM | 60 nM | 3900 nM |  |  |  | CCC(Oc1cccc(CCN(CCCOc2ccc(Cl)cc2)c2nc3ccccc3o2)c1)C(=O)O (stereo not drawn) [Example 53, 2-[3-[2-[N-(Benzoxazol-2-yl)-N-3-(4-chlorophenoxy)propyl]aminoethyl]phenoxy]butyric acid]
18 | > 100000 nM | 30 nM | 1100 nM |  |  |  | CC(C)(Oc1cccc(CCN(CCOc2ccccc2)c2nc3ccccc3o2)c1)C(=O)O [Example 78, 2-[3-[2-[N-(Benzoxazol-2-yl)-N-2-phenoxyethyl]aminoethyl]phenoxy]-2-methylpropionic acid]
19 | 2500 nM | 2 nM | 1200 nM |  |  |  | COc1ccc(OCCCN(Cc2cccc(O[C@H](C)C(=O)O)c2)c2nc3ccccc3o2)cc1 [Example 82, (R)-2-[3-[[N-(Benzoxazol-2-yl)-N-3-(4-methoxyphenoxy)propyl]aminomethyl]phenoxy]propionic acid]
20 | 1600 nM | 2 nM | 910 nM |  |  |  | CC[C@@H](Oc1cccc(CN(CCCOc2ccccc2)c2nc3ccccc3o2)c1)C(=O)O [Example 83, (R)-2-[[3-[N-(Benzoxazol-2-yl)-N-3-phenoxypropyl]aminomethyl]phenoxy]butyric acid]
21 | 1200 nM | 3 nM | 940 nM |  |  |  | CC[C@@H](Oc1cccc(CN(CCCOc2ccc(F)cc2)c2nc3ccccc3o2)c1)C(=O)O [Example 87, (R)-2-[[3-[N-(Benzoxazol-2-yl)-N-3-(4-fluorophenoxy)propyl]aminomethyl]phenoxy]butyric acid]
22 | 3700 nM | 11 nM | 2900 nM |  |  |  | C[C@@H](Oc1cccc(CN(CCCOc2ccccc2)c2nc3ccccc3o2)c1)C(=O)O [Example 88, (R)-2-[[3-[N-(Benzoxazol-2-yl)-N-3-phenoxypropyl]aminomethyl]phenoxy]propionic acid]
23 | 5100 nM | 9 nM | > 10000 nM |  |  |  | CC(Oc1cccc(CN(CCCC(=O)c2ccccc2)c2nc3ccccc3o2)c1)C(=O)O (stereo not drawn) [Example 93, 2-[3-[[N-(Benzoxazol-2-yl)-N-(4-oxo-4-phenylbutyl)]aminomethyl]phenoxy]propionic acid]
24 |  |  |  | 1100 nM | 3 nM | 1000 nM | CCC(Oc1cccc(CN(CCCOc2ccccc2)c2nc3cc(F)ccc3o2)c1)C(=O)O (stereo not drawn) [Example 132]
25 | 1800 nM | 7 nM | 1300 nM |  |  |  | CCC(Oc1cccc(CN(CCCOc2ccc(F)cc2)c2nc3ccc(F)cc3o2)c1)C(=O)O (stereo not drawn) [Example 140]
26 | 100 nM | 1 nM | 200 nM |  |  |  | CCC(Oc1cccc(CN(CCCOc2ccc(C)cc2)c2nc3ccccc3o2)c1)C(=O)O (stereo not drawn) [Example 146]
27 | 1800 nM | 11 nM | > 10000 nM |  |  |  | Cc1ccc2oc(N(CCCOc3ccccc3)Cc3cccc(OC(C)C(=O)O)c3)nc2c1 (stereo not drawn) [Example 155]
28 | 1100 nM | 5 nM | 1600 nM |  |  |  | CCC(Oc1cccc(CN(CCCOc2ccccc2)c2nc3cc4c(cc3o2)OCO4)c1)C(=O)O (stereo not drawn) [Example 158]
